{"source": "paper PMC12394658", "about": "“Discovery of Zharp1-163 as a dual inhibitor of ferroptosis and necroptosis for the treatment of inflammatory disorders and kidney injury” (Cell Death Discovery, 2025)", "test_in_all_cases": "biochemical", "design_in_all_cases": "Kinase selectivity panel of 81 human kinases, ADP-Glo or HTRF, per cent inhibition at 1 uM", "key": {"IRAK4": {"molecular_target": "IRAK4 (Homo sapiens, UniProt Q9NWZ3)", "sequence (Q9NWZ3 whole entry)": "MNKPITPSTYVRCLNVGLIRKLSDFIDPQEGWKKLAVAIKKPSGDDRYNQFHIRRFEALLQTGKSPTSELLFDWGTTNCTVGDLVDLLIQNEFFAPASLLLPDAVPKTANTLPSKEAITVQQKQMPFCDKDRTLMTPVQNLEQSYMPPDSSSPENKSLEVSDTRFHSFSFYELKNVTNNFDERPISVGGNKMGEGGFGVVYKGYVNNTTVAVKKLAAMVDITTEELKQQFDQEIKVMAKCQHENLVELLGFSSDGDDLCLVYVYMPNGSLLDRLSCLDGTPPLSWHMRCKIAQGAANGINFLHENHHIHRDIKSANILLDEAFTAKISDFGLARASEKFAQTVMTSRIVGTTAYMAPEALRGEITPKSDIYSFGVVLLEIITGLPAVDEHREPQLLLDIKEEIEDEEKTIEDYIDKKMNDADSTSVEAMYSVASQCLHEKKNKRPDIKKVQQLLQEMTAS", "method_in_brief": "(§1)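 Kinase-panel selectivity profiling of 81 kinases with compound at 1000 nM.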"}, "NEK2": {"molecular_target": "NEK2 (Homo sapiens, UniProt P51955)", "method_in_brief": "as §1"}, "MAPKAPK2": {"molecular_target": "MAPKAPK2 (Homo sapiens, UniProt P49137)", "sequence (P49137 whole entry)": "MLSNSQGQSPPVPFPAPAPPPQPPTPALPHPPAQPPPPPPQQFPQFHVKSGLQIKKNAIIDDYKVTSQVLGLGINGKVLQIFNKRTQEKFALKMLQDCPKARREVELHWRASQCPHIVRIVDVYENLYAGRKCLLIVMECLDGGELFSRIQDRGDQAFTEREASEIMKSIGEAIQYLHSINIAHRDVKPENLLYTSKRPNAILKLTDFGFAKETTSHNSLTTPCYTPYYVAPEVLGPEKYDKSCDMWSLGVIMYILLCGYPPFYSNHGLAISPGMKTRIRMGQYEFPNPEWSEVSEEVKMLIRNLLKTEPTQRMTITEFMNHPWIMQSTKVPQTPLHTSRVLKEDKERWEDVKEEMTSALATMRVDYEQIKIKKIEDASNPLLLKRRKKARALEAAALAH", "method_in_brief": "as §1"}, "JNK1": {"molecular_target": "T1, JNK1 (Homo sapiens, UniProt P45983)", "T1 construct": "gene MAPK8", "T1 sequence (P45983 whole entry)": "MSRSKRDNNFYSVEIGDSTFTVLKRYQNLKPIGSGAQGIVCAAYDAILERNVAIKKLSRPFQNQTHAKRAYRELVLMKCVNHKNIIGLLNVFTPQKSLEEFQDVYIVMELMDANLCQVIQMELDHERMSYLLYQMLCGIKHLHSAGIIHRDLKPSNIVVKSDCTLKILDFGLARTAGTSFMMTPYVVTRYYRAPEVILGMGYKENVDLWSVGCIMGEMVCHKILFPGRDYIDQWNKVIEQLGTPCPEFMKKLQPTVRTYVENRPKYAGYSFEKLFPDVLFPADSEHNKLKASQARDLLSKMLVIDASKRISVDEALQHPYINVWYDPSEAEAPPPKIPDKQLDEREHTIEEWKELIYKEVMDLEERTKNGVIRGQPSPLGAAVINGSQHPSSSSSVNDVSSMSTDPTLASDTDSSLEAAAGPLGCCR", "method_in_brief": "as §1"}, "GAK": {"molecular_target": "GAK (Homo sapiens, UniProt O14976)", "method_in_brief": "as §1"}, "CDK2/CycE1": {"molecular_target": "CDK2/CycE1 (Homo sapiens, UniProt P24941)", "method_in_brief": "as §1"}, "HPK1": {"molecular_target": "T2, HPK1 (Homo sapiens, UniProt Q92918)", "T2 construct": "gene MAP4K1", "T2 sequence (Q92918 whole entry)": "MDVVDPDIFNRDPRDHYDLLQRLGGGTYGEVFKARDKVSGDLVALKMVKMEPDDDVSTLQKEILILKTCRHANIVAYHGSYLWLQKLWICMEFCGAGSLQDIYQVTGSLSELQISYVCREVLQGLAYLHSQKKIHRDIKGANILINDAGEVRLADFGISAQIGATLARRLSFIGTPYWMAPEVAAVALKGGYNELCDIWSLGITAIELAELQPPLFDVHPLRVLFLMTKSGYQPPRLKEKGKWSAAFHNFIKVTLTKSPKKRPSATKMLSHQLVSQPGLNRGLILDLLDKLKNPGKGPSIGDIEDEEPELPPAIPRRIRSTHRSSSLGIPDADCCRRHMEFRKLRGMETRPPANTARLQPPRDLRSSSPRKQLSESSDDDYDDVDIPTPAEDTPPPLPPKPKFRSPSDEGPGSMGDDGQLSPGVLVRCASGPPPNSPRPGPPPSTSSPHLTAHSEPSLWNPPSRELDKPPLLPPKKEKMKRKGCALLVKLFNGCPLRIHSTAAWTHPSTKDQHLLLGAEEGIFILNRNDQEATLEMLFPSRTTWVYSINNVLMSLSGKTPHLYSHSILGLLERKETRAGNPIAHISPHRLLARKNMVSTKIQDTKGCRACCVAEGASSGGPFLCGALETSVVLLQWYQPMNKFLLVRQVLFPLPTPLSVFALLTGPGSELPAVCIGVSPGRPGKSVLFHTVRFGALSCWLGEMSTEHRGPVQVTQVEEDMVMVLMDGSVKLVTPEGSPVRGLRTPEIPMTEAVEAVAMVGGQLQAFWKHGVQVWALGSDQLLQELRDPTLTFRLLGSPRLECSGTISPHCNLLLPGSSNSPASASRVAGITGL", "method_in_brief": "as §1"}, "AMPKα1/β1/γ1": {"molecular_target": "T3, AMPKα1/β1/γ1 (Homo sapiens, UniProt Q13131)", "T3 construct": "gene PRKAA1", "method_in_brief": "as §1"}, "p38α": {"molecular_target": "T4, p38α (Homo sapiens, UniProt Q16539)", "T4 construct": "gene MAPK14", "T4 sequence (Q16539 whole entry)": "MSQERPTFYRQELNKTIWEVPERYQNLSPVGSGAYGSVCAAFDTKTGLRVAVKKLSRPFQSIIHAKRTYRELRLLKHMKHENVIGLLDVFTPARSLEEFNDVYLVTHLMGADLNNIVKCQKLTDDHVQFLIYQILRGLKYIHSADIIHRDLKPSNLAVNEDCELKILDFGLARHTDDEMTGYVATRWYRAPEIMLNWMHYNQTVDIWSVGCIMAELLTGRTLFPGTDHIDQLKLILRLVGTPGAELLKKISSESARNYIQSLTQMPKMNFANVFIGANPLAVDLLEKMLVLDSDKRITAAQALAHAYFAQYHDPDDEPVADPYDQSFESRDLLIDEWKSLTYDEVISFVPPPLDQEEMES", "method_in_brief": "as §1"}, "TGFβR2": {"molecular_target": "T5, TGFβR2 (Homo sapiens, UniProt P37173)", "T5 construct": "gene TGFBR2", "method_in_brief": "as §1"}, "CK1γ3": {"molecular_target": "T6, CK1γ3 (Homo sapiens, UniProt Q9Y6M4)", "T6 construct": "gene CSNK1G3", "T6 sequence (Q9Y6M4 whole entry)": "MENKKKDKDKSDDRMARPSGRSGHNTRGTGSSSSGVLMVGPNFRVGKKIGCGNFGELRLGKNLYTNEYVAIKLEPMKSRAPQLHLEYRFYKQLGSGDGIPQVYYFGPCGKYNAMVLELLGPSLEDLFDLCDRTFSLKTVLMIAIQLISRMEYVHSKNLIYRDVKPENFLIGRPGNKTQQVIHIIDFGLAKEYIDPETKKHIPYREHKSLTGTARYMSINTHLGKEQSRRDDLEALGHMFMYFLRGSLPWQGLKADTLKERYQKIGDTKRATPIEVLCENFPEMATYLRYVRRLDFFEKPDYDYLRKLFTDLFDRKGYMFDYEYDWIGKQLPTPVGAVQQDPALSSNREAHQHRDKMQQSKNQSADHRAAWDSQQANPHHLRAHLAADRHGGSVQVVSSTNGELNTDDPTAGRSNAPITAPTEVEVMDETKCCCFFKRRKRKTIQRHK", "method_in_brief": "as §1"}, "PKCα": {"molecular_target": "T7, PKCα (Homo sapiens, UniProt P17252)", "T7 construct": "gene PRKCA", "method_in_brief": "as §1"}, "ITK": {"molecular_target": "ITK (Homo sapiens, UniProt Q08881)", "method_in_brief": "as §1"}, "MAP3K19": {"molecular_target": "MAP3K19 (Homo sapiens, UniProt Q56UN5)", "sequence (Q56UN5 whole entry)": "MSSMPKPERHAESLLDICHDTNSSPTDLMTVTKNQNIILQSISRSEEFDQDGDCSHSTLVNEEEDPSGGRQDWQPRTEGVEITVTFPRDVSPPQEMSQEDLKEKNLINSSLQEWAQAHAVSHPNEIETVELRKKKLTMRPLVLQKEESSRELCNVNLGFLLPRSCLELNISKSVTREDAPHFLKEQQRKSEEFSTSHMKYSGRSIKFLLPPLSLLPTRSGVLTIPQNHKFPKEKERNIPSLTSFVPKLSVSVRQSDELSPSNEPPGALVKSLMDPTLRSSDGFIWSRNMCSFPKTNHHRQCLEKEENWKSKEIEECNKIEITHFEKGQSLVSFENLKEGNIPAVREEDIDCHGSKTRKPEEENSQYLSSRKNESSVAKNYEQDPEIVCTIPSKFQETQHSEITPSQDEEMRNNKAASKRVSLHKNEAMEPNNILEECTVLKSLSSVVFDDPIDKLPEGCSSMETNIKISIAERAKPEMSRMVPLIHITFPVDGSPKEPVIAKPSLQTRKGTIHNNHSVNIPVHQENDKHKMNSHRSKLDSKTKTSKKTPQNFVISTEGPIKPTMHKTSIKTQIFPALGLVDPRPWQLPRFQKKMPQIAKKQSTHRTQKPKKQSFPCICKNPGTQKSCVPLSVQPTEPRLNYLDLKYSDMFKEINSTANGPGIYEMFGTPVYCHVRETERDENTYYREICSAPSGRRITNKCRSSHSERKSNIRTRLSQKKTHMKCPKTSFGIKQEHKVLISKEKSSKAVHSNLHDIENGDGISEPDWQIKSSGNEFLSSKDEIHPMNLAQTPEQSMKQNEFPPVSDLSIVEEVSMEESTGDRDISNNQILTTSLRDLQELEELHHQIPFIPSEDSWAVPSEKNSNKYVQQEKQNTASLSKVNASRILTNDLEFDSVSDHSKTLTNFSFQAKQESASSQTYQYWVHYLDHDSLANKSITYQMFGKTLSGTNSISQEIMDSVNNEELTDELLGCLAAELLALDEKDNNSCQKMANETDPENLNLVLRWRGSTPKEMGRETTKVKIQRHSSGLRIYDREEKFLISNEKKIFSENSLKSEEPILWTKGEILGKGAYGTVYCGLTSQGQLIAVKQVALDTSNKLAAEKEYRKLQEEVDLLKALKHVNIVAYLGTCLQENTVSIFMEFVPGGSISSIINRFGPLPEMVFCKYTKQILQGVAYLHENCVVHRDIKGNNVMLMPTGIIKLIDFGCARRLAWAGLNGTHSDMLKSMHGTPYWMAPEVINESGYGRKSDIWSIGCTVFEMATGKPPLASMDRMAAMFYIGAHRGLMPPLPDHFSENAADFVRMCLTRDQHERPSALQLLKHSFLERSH", "method_in_brief": "as §1"}}}
{"smiles": "Nc1cn2cc(-c3cnc4c(c3)N(C(=O)OC3CCCCC3)CCO4)ccc2n1", "note": "[Zharp1-163]", "values": [{"measurement": "inhibition at 1 µM", "setting": "IRAK4; replicate Data1", "value": 8.12, "unit": "%"}, {"measurement": "inhibition at 1 µM", "setting": "IRAK4; replicate Data2", "value": 17.2, "unit": "%"}, {"measurement": "inhibition at 1 µM", "setting": "NEK2; replicate Data1", "value": -4.5, "unit": "%"}, {"measurement": "inhibition at 1 µM", "setting": "NEK2; replicate Data2", "value": 1.76, "unit": "%"}, {"measurement": "inhibition at 1 µM", "setting": "MAPKAPK2; replicate Data1", "value": -3.5, "unit": "%"}, {"measurement": "inhibition at 1 µM", "setting": "MAPKAPK2; replicate Data2", "value": -31.8, "unit": "%"}, {"measurement": "inhibition at 1 µM", "setting": "JNK1; replicate Data1", "value": 6.2, "unit": "%"}, {"measurement": "inhibition at 1 µM", "setting": "JNK1; replicate Data2", "value": 5.09, "unit": "%"}, {"measurement": "inhibition at 1 µM", "setting": "GAK; replicate Data1", "value": 18.2, "unit": "%"}, {"measurement": "inhibition at 1 µM", "setting": "GAK; replicate Data2", "value": 19.7, "unit": "%"}, {"measurement": "inhibition at 1 µM", "setting": "CDK2/CycE1; replicate Data1", "value": 3.25, "unit": "%"}, {"measurement": "inhibition at 1 µM", "setting": "CDK2/CycE1; replicate Data2", "value": -0.65, "unit": "%"}, {"measurement": "inhibition at 1 µM", "setting": "HPK1; replicate Data1", "value": 17, "unit": "%"}, {"measurement": "inhibition at 1 µM", "setting": "HPK1; replicate Data2", "value": 2.46, "unit": "%"}, {"measurement": "inhibition at 1 µM", "setting": "AMPKα1/β1/γ1; replicate Data1", "value": 12.1, "unit": "%"}, {"measurement": "inhibition at 1 µM", "setting": "AMPKα1/β1/γ1; replicate Data2", "value": 6.96, "unit": "%"}, {"measurement": "inhibition at 1 µM", "setting": "p38α; replicate Data1", "value": 11.8, "unit": "%"}, {"measurement": "inhibition at 1 µM", "setting": "p38α; replicate Data2", "value": 9.57, "unit": "%"}, {"measurement": "inhibition at 1 µM", "setting": "TGFβR2; replicate Data1", "value": 7.99, "unit": "%"}, {"measurement": "inhibition at 1 µM", "setting": "TGFβR2; replicate Data2", "value": 3.92, "unit": "%"}, {"measurement": "inhibition at 1 µM", "setting": "CK1γ3; replicate Data1", "value": 14.1, "unit": "%"}, {"measurement": "inhibition at 1 µM", "setting": "CK1γ3; replicate Data2", "value": 20.6, "unit": "%"}, {"measurement": "inhibition at 1 µM", "setting": "PKCα; replicate Data1", "value": -5.43, "unit": "%"}, {"measurement": "inhibition at 1 µM", "setting": "PKCα; replicate Data2", "value": -7.15, "unit": "%"}, {"measurement": "inhibition at 1 µM", "setting": "ITK; replicate Data1", "value": 19.4, "unit": "%"}, {"measurement": "inhibition at 1 µM", "setting": "ITK; replicate Data2", "value": 18.5, "unit": "%"}, {"measurement": "inhibition at 1 µM", "setting": "MAP3K19; replicate Data1", "value": -4.19, "unit": "%"}, {"measurement": "inhibition at 1 µM", "setting": "MAP3K19; replicate Data2", "value": 10.2, "unit": "%"}]}
